In ChEMBL document CHEMBL2021774, “Rapid development of piperidine carboxamides as potent and selective anaplastic lymphoma kinase inhibitors” (J Med Chem, 2012):

target: T1, ALK tyrosine kinase receptor (Homo sapiens, UniProt Q9UM73)
T1 sequence (Q9UM73 whole entry): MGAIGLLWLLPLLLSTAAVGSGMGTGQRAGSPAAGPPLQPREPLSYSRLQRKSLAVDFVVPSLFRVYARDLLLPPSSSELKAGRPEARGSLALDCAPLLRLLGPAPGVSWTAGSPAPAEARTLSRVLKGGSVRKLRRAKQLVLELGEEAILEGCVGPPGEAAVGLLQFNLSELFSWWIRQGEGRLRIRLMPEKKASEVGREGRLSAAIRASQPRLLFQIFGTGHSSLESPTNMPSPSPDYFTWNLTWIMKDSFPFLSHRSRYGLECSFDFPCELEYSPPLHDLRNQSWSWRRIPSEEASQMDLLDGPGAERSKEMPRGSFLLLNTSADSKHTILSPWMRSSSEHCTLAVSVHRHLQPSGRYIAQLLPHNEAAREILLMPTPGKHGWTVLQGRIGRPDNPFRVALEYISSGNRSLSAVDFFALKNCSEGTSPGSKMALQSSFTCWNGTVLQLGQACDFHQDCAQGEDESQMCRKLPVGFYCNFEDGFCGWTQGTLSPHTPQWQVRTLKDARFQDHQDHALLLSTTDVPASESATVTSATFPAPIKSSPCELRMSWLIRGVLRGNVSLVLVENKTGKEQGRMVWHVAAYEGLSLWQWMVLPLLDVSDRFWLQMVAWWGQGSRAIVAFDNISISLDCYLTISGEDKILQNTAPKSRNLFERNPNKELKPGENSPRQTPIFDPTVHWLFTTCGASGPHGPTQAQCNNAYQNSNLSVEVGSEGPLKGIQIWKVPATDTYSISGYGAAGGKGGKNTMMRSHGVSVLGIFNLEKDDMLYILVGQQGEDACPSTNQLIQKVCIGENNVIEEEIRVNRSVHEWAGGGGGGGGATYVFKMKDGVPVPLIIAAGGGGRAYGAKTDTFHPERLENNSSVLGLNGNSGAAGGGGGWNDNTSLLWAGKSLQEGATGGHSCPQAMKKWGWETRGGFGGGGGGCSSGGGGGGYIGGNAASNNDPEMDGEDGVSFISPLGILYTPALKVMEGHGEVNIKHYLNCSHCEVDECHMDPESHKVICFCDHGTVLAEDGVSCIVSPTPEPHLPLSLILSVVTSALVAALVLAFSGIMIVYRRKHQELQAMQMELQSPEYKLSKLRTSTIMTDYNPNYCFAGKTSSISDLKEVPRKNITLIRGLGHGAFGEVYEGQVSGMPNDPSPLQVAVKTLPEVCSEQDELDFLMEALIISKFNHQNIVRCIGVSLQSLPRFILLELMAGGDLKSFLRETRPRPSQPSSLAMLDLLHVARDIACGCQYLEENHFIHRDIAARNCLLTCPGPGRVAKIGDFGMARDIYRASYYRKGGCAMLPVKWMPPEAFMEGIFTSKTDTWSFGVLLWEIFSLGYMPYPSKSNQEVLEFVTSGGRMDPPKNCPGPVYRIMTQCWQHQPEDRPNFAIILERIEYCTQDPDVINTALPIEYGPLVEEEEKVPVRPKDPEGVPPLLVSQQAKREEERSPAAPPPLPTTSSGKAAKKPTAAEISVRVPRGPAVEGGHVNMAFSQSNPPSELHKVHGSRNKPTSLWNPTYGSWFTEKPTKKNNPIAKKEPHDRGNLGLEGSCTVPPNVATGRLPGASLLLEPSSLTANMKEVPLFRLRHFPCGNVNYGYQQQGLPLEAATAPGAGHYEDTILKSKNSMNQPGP

Row | SMILES | IC50 [µM]
1 | CNc1nccc(N2CCC[C@H](C(=O)NCc3ccc(C)cc3)C2)n1 | > 25
2 | Cc1ccc(CNC(=O)[C@H]2CCCN(c3ccnc(NCc4ccccc4)n3)C2)cc1 | > 25
3 | Cc1ccc(CNC(=O)[C@H]2CCCN(c3ccnc(Nc4ccc(Cl)cc4)n3)C2)cc1 | 6.3
4 | COc1cc(Nc2nccc(N3CCC[C@H](C(=O)NCc4cccc(N5CCOCC5)c4)C3)n2)cc(OC)c1OC | 0.031

The next lines start with the values.

Row | IC50 [µM] | SMILES
5 | 6.71 | COc1cc(Nc2nccc(N3CCC[C@H](C(=O)NCCCc4ccccc4)C3)n2)cc(OC)c1OC
6 | 2.93 | COc1cc(Nc2nccc(N3CCC[C@H](C(=O)NCc4ccc([N+](=O)[O-])cc4)C3)n2)cc(OC)c1OC

target: Insulin-like growth factor 1 receptor (Homo sapiens, UniProt P08069)
Sequence (P08069 31-736 limits assumed): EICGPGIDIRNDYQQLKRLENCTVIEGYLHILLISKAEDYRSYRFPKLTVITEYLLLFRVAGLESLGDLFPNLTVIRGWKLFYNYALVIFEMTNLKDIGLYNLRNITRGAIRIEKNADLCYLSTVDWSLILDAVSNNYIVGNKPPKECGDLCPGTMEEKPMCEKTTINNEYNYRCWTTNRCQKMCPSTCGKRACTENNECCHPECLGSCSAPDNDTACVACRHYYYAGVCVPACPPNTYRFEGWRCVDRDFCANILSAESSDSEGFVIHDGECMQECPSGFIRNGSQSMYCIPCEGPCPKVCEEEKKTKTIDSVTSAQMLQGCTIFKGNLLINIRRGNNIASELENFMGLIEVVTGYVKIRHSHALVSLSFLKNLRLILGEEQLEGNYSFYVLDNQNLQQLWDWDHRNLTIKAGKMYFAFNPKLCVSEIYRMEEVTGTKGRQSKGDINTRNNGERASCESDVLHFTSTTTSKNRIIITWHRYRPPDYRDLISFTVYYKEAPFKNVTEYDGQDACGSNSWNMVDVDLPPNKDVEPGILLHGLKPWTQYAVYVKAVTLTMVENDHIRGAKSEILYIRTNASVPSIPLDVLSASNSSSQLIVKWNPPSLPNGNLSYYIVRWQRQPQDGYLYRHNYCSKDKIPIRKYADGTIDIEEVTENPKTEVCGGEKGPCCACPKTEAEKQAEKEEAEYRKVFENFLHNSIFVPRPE
Sequence (P08069 741-1367 limits assumed): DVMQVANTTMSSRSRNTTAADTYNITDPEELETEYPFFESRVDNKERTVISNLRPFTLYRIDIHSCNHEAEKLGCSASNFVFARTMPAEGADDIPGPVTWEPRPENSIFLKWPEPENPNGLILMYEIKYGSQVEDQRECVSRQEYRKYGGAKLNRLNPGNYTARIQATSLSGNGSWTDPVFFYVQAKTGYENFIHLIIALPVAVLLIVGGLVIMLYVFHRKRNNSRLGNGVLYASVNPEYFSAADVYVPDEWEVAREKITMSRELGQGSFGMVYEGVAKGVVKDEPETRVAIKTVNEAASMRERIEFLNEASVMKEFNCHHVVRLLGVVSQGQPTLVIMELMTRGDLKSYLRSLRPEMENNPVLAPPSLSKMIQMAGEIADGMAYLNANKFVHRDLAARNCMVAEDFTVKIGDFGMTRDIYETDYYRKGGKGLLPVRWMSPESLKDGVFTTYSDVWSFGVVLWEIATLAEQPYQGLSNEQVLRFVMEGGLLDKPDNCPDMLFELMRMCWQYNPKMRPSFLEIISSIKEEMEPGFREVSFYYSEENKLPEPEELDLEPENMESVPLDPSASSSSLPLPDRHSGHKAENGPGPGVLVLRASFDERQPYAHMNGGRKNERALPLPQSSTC

Row | SMILES | IC50 [µM]
7 | COc1cc(Nc2nccc(N3CCC[C@H](C(=O)NCc4ccc(C)cc4)C3)n2)cc(OC)c1OC | 4.61
8 | CNc1nccc(N2CCC[C@H](C(=O)NCc3ccc(C)cc3)C2)n1 | > 25
9 | Cc1ccc(CNC(=O)[C@H]2CCCN(c3ccnc(NCc4ccccc4)n3)C2)cc1 | > 25
10 | Cc1ccc(CNC(=O)[C@H]2CCCN(c3ccnc(Nc4cccc(Cl)c4)n3)C2)cc1 | > 25
11 | Cc1ccc(CNC(=O)[C@H]2CCCN(c3ccnc(Nc4ccc(Cl)cc4)n3)C2)cc1 | > 25
12 | COc1ccc(Nc2nccc(N3CCC[C@H](C(=O)NCc4ccc(C)cc4)C3)n2)cc1 | > 25
13 | CCc1cccc(Nc2nccc(N3CCC[C@H](C(=O)NCc4ccc(C)cc4)C3)n2)c1 | > 25
14 | Cc1ccc(CNC(=O)[C@H]2CCCN(c3ccnc(Nc4ccc5c(c4)OCCO5)n3)C2)cc1 | > 25
15 | COC(=O)c1ccc(CNC(=O)[C@H]2CCCN(c3ccnc(Nc4cc(OC)c(OC)c(OC)c4)n3)C2)cc1 | > 25
16 | COc1cc(Nc2nccc(N3CCC[C@@H](C(=O)NCc4ccc(C)cc4)C3)n2)cc(OC)c1OC | > 25

The remaining lines, values ahead:

Row | IC50 [µM] | SMILES
17 | > 25 | Cc1ccc(CNC(=O)[C@H]2CCCN(c3ccnc(Nc4ccccc4)n3)C2)cc1
18 | > 25 | CCc1ccc(Nc2nccc(N3CCC[C@H](C(=O)NCc4ccc(C)cc4)C3)n2)cc1
19 | > 25 | COc1ccc(Nc2nccc(N3CCC[C@H](C(=O)NCc4ccc(C)cc4)C3)n2)cc1OC
20 | > 25 | COc1cc(Nc2nccc(N3CCC[C@H](C(=O)NCCc4ccccc4)C3)n2)cc(OC)c1OC
21 | > 25 | COc1cc(Nc2nccc(N3CCC[C@H](C(=O)NCc4ccc([N+](=O)[O-])cc4)C3)n2)cc(OC)c1OC
22 | > 25 | COc1cc(Nc2nccc(N3CCC[C@H](C(=O)NCc4ccc(-c5ccccc5)cc4)C3)n2)cc(OC)c1OC

target: T1, ALK tyrosine kinase receptor; remark: another data set of the same source
Description: Inhibition of ALK phosphorylation in human Karpas-299 cells after 1 hr

Row | IC50 [µM] | SMILES
23 | 0.028 | COc1cc(Nc2nccc(N3CCC[C@H](C(=O)NCc4cccc(N5CCOCC5)c4)C3)n2)cc(OC)c1OC
